Measurements as given in patent US11331290B2, “Niclosamide for the treatment of cancer metastasis” (Max-Delbrück-Centrum für Molekulare Medizin in der …, priority 2011, dated 2022).

Key:
S100A4 promoter = test: High-throughput screening, S100A4 promoter-driven luciferase reporter; type: cell-based, human; conditions: HCT116-S100A4p-LUC cells, 20-concentration rescreen, 2-fold dilutions from 100 μM, 24 h
Method: HCT116-S100A4p-LUC colon cancer cells stably expressing a human S100A4 promoter-driven luciferase reporter gene construct were screened with the Library of Pharmacologically Active Compounds (LOPAC; FIG. 1, A). The LOPAC Library represents a collection of 1280 well characterized small molecule inhibitors. […] In parallel, cell viability was determined using the Alamar blue assay to evaluate whether some of the inhibitory effects were caused by cytotoxicity (data not shown). […]
For high-throughput screening 2.5×10^3 cells per well of HCT116-S100A4p-LUC cells were seeded into white opaque 384-well plates (Perkin Elmer, Waltham, Mass.) using the BIOMEK 2000 automatic pipetting system (Beckman Coulter, Brea, Calif.). […] Following compound treatment, luciferase expression was determined using Britelite reagent (Perkin Elmer) in a Wallac Victor reader (Perkin Elmer). In parallel, cytotoxicity of the compounds was measured in clear polystyrene 384-well plates (Costar) by Alamar blue cytotoxicity assay (Sigma-Aldrich). […] Plates were then read on a Wallac Victor reader at an excitation wavelength of 530 nm and emission wavelength of 590 nm. For both luminescence and Alamar blue fluorescence data, eight vehicle control wells were averaged and test compound results (single well) expressed as percent of control. […]

[1] = mice chronically fed 200 mg/kg, two years observation time; cited from earlier work
[2] = tested on: SW620, LS174T, SW480 and DLD-1 cells; test: Wound healing assay (directed migration); type: cell-based, human; conditions: 1 μM daily, 4 days, vs respective solvent-treated control
Method: For wound healing assay HCT116, SW620, LS174T, SW480 and DLD-1 cells were grown to form 60% confluent monolayers of cells in which a wound of about 300 μm width was inflicted with a sterile pipette tip. The medium was exchanged to remove non-adherent cells and the wounded monolayer was treated with 1 μM niclosamide or the respective amount of DMSO every 24 hours for 4 consecutive days. The progress of wound closure was monitored with microphotographs of 10× magnification taken with the Leica DM IL light microscope (Leica Microsystems) on day 0 and day 4. The wound healing experiment was performed three independent times.
(A) S100A4 expression under niclosamide treatment. […] S100A4 expression was analyzed with qRT-PCR and immunoblot. […] Migration rates of cells treated with 1 μM niclosamide for 24 hours were determined in a Boyden chamber assay values were normalized to solvent-treated SW620 cells. […] Invaded cells in the lower chamber were counted and normalized to solvent-treated SW620 cells. Differences in solvent vs. niclosamide-treated cells were analyzed by Student's t test. […] The amount of viable cells per well was determined by MTT assay. […] (G) Quantification of colonies formed. Number of colonies (of more than 4 cells) was counted and normalized to solvent-treated SW620 cells. Differences in solvent vs. niclosamide-treated cells were analyzed by Student's t test. […]

## O=C(Nc1ccc([N+](=O)[O-])cc1Cl)c1cc(Cl)ccc1O [niclosamide, 2′,5-dichloro-4′-nitrosalicylanilide]
S100A4 promoter
  inhibition of reporter gene expression: strongest candidate
[1]
  adverse effects: no adverse effects
[2]
  directed migration (wound healing): impaired
